Here are results for three compounds from publication PMC6382835, “A critical evaluation of TRPA1-mediated locomotor behavior in zebrafish as a screening tool for novel anti-nociceptive drug discovery” (Scientific Reports, 2019).

Experiment [1] deals with T1, mouse TRPA1 (mTRPA1) (Mus musculus, UniProt Q8BLA8).
T1 construct: host or cells: HEK293 (ATCC CRL-1573), transient transfection
In words: FLIPR calcium signaling assay in mTRPA1-transfected HEK293 cells. Type of experiment: cell-based. Particulars: for EC50: read-out: EC50 (potency in µM). As to the method:
HEK293 cells (#CRL-1573, ATCC, VA, USA) were cultured in DMEM media (#11995-065, Sigma-Aldrich, MO, USA) with 10% Fetal Bovine Serum (#F0926-500ML, Thermo Fisher, MA, USA). The cells were maintained in a 37 °C incubator with consistent 5% CO2. They were seeded in a clear 6 well flat bottom cell culture plates (#07-200-83, Corning ®, Thermo Fisher) with 500,000 cells/2 ml/well for transfection, in serum-free Opti-MEM (#31985070, Gibco®, Thermo Fisher). These cells were transfected with pcDNA3.1-mTRPA1 (#MR227099, OriGene, MD, USA), pcDNA3.1-zTRPA1a, or pcDNA3.1-zTRPA1b (a gift from Dr. David Prober) using X-tremeGENE^TM 9 (#6365809001, Sigma-Aldrich). After 24 hours, the transfected cells were dislodged with trypsin, resuspended in Opti-MEM, and seeded 25,000 cells/25 µl/well in 384-well black polystyrene microplates (#82051-296, VWR, PA, USA) for testing calcium signaling the following day. Experiments were carried out with the approval of the Institutional Biohazard Committee (#13-013-16).
Twenty-five µl calcium sensitive Fluorescent Imaging Plate Reader (FLIPR) Calcium 6 assay dye (#R8190, Molecular Devices, CA, USA) was added to each well of a 384-well plate containing HEK293 cells transiently expressing mTRPA1, zTRPA1a, and zTRPA1b, respectively. The cells were incubated for an hour prior to the recording of intracellular calcium levels in a FlexStation3 Multi-Mode Microplate Reader (#R8190, Molecular Devices) as previously described. All compounds were diluted in calcium buffer made with 1x HBSS (#14025-092, Thermo Fisher), 20 mM HEPES (#15630-080, Thermo Fisher), and 2.5 mM Probenecid (#P8761, Sigma-Aldrich). For agonist studies, ASP7663 (#5178, Tocris, Bristol, UK) was diluted in 1% DMSO-containing calcium buffer at desired concentrations and was added during the recording. The TRPA1 antagonists HC-030031 (#2896, Tocris), TCS-5861528 (#3938, Tocris), and A-967079 (#4716, Tocris) were diluted in calcium buffer, and 5 µl of 10x solutions were added 10 minutes prior to the recording. The same amount of DMSO (1%) was added to all control groups to maintain similar DMSO levels with the experimental groups. During the assay, the cells were challenged by a 5x ASP7663 solution or 1% DMSO solution at the 20 seconds time point, and both solutions were diluted in calcium buffer. Relative fluorescence units (RFU) were measured for 120 seconds period by the Flexstation. Area under the curve (AUC) was further evaluated from individual calcium influx data (Supplemental Figs 2 and 4) to plot does-response curve of antagonists. For each specific antagonist concentration we plotted Log(dose ratio-1) against the antagonist concentration in a Schild plot. The dose ratio (A’/A) equals the EC50 of the agonist ([…]) in the presence of a concentration of the antagonist (A’) divided by the EC50 of the agonist in the absence of antagonist (A). The x-intercept of the Schild plot was used to identify the antagonist-receptor affinity (pA2).
All data are presented as means ± standard error of the mean (SEM). For our in vitro statistical analysis, AUC of calcium influx (RFU) was measured to plot dose-response curves, which were further analyzed by nonlinear regression analysis. Mean RFU of the first 10 seconds was used as a baseline of the AUC. EC50 values of the dose-response curves were further used to plot Schild curves, and the curves were analyzed with linear regression analysis. For the mice von Frey test, mechanical thresholds were analyzed with two-way ANOVA followed by a Bonferonni test for multiple comparison analysis. For the zebrafish behavior test, the data from the first five seconds following drug administration were excluded, as zebrafish displacement during that period was highly influenced by liquid dispensing. AUC of all curves were measured and analyzed by one-way ANOVA. The post-hoc analysis was conducted with the Tukey’s or Dunnett’s multiple comparisons unless it stated otherwise. […]

Experiment [2] relates to 5 dpf zebrafish larvae. Kind of experiment: Zebrafish locomotor tracking assay. Type of experiment: in vivo, Zebrafish (Danio rerio). The conditions noted are these: for swimming (locomotor) behavior: 100 μM agonist, 5 dpf larvae, 300 s tracking. As to the method: Wild-type zebrafish of the AB line were utilized for all behavioral experiments. Adult and larval zebrafish were maintained on a 14 hr/10 hr light/dark cycle. They were maintained and bred using standard procedure https://zfin.org/zf_info/zfbook/zfbk.html. Larval zebrafish were reared until 5 days post-fertilization (dpf) in E3 media https://zfin.org/zf_info/zfbook/chapt1/1.3.html in an incubator at 28 °C. E3 media was changed daily, and healthy embryos were kept for experiments.
In the behavioral experiments, one 5 dpf zebrafish was placed in 250 μL of fish media per well of a 96-well plate (UNIPLATE Collection and Analysis Microplate, 96-Well 7701-1651). For each experimental condition, a group of 8 larvae (1 column) was used. Larvae were acclimated to the wells for 300 seconds after which an 8-channel pipette was used to simultaneously dispense 250 μL of 2x concentration of the TRPA1 agonist ASP7663 in fish media into each well. Locomotor activity was subsequently tracked and quantified (as distance travelled) for 300 additional seconds utilizing the Zebrabox system from ViewPoint Behavior Technology (Civrieux, France). For TRPA1 antagonist testing, larvae in the 96-well plate were pretreated with 1x concentration of antagonist in 250 μL E3 media for 20 minutes. Then, 250 μL of 2x TRPA1 agonist was added directly to this solution, and the resulting behavior was recorded as described above.
All data are presented as means ± standard error of the mean (SEM). For our in vitro statistical analysis, AUC of calcium influx (RFU) was measured to plot dose-response curves, which were further analyzed by nonlinear regression analysis. Mean RFU of the first 10 seconds was used as a baseline of the AUC. EC50 values of the dose-response curves were further used to plot Schild curves, and the curves were analyzed with linear regression analysis. For the mice von Frey test, mechanical thresholds were analyzed with two-way ANOVA followed by a Bonferonni test for multiple comparison analysis. For the zebrafish behavior test, the data from the first five seconds following drug administration were excluded, as zebrafish displacement during that period was highly influenced by liquid dispensing. AUC of all curves were measured and analyzed by one-way ANOVA. The post-hoc analysis was conducted with the Tukey’s or Dunnett’s multiple comparisons unless it stated otherwise. A value of y = 0 in the graph was used as a baseline of the AUC. For our time-course average displacement graph, we used 2nd degree polynomial smoothing for a better representation; however, we used data before smoothing for all statistical analysis and quantification. All in vitro and in vivo data were evaluated using GraphPad Prism 7 (GraphPad Software, La Jolla, CA) unless it stated otherwise.

The mark [3] stands for this setting: agonist calcium influx, AUC of RFU, mTRPA1-transfected HEK293.
[4] abbreviates: Schild plot against ASP7663-induced calcium influx, mTRPA1.

T1 sequence (Q8BLA8 whole entry): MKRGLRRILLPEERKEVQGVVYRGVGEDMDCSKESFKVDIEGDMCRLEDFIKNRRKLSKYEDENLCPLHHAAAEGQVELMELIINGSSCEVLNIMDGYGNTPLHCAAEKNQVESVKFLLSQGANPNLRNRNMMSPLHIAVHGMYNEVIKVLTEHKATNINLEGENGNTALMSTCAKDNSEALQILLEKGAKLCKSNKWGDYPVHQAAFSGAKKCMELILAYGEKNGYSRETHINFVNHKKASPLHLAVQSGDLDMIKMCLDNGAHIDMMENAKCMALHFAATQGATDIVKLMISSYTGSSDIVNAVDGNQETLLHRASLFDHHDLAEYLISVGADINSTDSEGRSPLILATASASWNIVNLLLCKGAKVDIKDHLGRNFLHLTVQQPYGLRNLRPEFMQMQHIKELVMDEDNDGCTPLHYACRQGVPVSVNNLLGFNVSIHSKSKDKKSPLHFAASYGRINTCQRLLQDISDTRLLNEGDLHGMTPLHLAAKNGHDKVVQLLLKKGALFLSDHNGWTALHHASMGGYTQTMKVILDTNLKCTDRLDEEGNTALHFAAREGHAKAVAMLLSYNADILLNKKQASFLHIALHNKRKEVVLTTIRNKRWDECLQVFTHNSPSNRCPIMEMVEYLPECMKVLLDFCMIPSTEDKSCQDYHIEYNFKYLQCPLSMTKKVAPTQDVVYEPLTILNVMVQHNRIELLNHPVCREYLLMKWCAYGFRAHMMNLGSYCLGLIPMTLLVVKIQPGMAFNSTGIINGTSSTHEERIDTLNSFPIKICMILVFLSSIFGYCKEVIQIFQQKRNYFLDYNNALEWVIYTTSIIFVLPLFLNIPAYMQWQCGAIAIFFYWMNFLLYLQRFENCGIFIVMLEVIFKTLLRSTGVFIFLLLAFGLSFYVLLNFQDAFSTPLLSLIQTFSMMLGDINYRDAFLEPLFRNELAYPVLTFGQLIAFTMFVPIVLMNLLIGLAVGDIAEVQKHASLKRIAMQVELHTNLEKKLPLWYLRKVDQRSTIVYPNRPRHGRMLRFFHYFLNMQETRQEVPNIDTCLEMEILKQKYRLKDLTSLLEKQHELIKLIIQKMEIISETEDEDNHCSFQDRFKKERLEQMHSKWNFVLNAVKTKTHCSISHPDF

One may read the pEC50 as the EC50 on a negative log10 scale, so that one unit is a factor of ten. The EC50 is the midpoint of the concentration-response curve. With `CC(C)CN1C(=O)/C(=C/C(=O)O)c2cccc(F)c21` [ASP7663], the “persistence of calcium influx” value in experiment [1] (316 µM, up to 120 seconds, compared to AITC) was “more persistent calcium influx compared to AITC”. In addition, in experiment [1] (setting [3]), the pEC50 was 5.16 ± 0.16 and the EC50 was found to be 6.8 µM. In experiment [1] (versus similar FLIPR-based calcium assay), the “potency weaker than previously reported (fold)” value was ~ 10 fold. Also, the “swimming (locomotor) behavior” value in experiment [2] is “induced a slower and more sustained swimming behavior”. Moreover, the locomotor activity entry in experiment [2] (ASP7663 higher concentration 31.6 and 100 μM) is “hyperlocomotor activity”. Further, the locomotor activity entry in experiment [2] (ASP7663 low doses 3.16 and 10 μM) is recorded as “induced hypolocomotion”.

One may read the pA2 as the negative logarithm of the molar antagonist concentration that doubles the agonist concentration needed for the same response. With `CC(C)c1ccc(NC(=O)Cn2cnc3c2c(=O)n(C)c(=O)n3C)cc1` [HC-030031], in experiment [1] (setting [4]), the pA2 came to 5.65 ± 0.2 and the “pA2 expressed in µM” value is on record as 2.2 µM. Besides, the “swimming behavior with antagonist alone” value in experiment [2] (10 μM HC-030031 alone vs E3) was “increased swimming behavior over baseline”. In addition, the “inhibition of ASP7663 (100 μM)-mediated nocifensive locomotor behavior” value in experiment [2] (10 μM antagonist pre-incubation 20 minutes) is on record as “inhibited the nocifensive locomotor behavior”.

With `C=CCN=C=S` [AITC, allyl isothiocyanate], the 50% effective concentration (EC50) in experiment [1] (setting [3]) is 5.8 µM. Moreover, the “swimming (locomotor) behavior” value in experiment [2] was “elicited an acute and rapid swimming behavior immediately upon treatment”.
